Laboratory results as given in patent US20230048132A1, “CYCLIN-DEPENDENT KINASE INHIBITORS” (SPV THERAPEUTICS INC., priority 2018, published 2023).
Like-named read-outs stand apart in the source and are kept apart here.

Tests used:
Assay in all cases: CDK inhibition assay (microfluidic LabChip, IC50 format)
CDK4-CYCLIND1 = CDK4-CYCLIND1 (Homo sapiens, UniProt P11802); conditions: a second value in parentheses for some compounds
CDK2-CYCLINA = biological target: T1, CDK2-CYCLINA (Homo sapiens, UniProt P24941); type: biochemical; conditions: read-out: CDK2 CyclinA IC50
T1 construct: purchased Millipore

CDK7 CyclinH = CDK7 CyclinH (Homo sapiens, UniProt P50613); type: biochemical
CDK9-CYCLINT1 = biological target: T2, CDK9-CYCLINT1 (Homo sapiens, UniProt P50750); type: biochemical; conditions: read-out: CDK9 CyclinT1 IC50
T2 construct: purchased Carna

CDK1/B = CDK1/B (Homo sapiens, UniProt P06493); type: biochemical
[1] = CDK4 CyclinD1 IC50, Table 4b, lower part

Chain of CDK4-CYCLIND1 (P11802 whole entry): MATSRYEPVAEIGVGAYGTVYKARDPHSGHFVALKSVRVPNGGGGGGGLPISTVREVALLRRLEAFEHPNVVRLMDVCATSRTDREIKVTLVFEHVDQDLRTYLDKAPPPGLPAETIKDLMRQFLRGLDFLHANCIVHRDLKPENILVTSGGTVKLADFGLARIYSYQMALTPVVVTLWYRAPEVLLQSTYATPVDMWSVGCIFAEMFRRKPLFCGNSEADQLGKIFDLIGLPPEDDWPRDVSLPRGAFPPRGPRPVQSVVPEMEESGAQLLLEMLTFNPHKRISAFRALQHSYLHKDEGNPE
Chain of CDK4-CYCLIND1 (P24385 whole entry partner): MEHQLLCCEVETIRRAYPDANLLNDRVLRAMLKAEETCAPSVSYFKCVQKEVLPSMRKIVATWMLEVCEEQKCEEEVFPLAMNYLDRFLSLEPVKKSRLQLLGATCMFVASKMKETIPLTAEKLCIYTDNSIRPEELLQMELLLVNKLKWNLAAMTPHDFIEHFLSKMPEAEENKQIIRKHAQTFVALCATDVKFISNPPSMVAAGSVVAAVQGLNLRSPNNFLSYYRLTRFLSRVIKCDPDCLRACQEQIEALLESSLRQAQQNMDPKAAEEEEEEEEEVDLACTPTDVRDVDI
Chain of CDK7 CyclinH (P50613 whole entry): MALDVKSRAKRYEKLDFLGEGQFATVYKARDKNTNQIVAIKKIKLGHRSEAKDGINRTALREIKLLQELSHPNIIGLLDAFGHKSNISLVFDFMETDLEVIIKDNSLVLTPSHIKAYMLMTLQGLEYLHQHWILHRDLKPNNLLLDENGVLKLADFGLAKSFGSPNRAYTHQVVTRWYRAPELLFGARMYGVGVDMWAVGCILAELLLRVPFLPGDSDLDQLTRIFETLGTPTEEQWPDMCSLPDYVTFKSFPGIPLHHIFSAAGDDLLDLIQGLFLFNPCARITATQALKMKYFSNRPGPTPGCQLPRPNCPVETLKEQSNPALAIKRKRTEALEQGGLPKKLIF
Chain of CDK7 CyclinH (P51946 whole entry partner): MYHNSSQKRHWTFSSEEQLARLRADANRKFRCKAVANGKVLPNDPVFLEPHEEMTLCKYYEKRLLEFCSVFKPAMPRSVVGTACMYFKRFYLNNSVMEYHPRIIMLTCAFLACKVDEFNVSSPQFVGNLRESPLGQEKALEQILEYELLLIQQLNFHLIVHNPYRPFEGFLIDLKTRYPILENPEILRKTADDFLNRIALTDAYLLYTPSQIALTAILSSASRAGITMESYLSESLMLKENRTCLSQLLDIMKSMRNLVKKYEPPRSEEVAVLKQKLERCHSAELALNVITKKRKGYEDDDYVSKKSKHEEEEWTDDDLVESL
Chain of CDK7 CyclinH (P51948 whole entry partner): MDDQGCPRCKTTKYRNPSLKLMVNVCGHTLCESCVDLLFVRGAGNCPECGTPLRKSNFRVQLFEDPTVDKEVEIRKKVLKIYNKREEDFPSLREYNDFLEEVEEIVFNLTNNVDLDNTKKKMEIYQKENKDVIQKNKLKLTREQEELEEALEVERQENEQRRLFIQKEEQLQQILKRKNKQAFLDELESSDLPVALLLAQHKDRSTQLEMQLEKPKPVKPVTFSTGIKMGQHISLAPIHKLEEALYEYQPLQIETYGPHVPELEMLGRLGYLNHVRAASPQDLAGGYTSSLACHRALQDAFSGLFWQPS
Chain of CDK1/B (P06493 whole entry, species assumed): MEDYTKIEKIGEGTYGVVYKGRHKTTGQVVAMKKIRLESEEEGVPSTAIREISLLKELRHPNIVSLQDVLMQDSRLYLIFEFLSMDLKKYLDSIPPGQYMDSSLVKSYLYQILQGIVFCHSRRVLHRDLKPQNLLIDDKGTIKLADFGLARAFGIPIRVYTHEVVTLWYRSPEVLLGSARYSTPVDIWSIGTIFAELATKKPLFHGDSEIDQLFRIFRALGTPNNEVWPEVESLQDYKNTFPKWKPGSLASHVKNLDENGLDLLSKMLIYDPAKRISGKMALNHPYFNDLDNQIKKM
Chain of CDK1/B (P14635 whole entry partner, species assumed): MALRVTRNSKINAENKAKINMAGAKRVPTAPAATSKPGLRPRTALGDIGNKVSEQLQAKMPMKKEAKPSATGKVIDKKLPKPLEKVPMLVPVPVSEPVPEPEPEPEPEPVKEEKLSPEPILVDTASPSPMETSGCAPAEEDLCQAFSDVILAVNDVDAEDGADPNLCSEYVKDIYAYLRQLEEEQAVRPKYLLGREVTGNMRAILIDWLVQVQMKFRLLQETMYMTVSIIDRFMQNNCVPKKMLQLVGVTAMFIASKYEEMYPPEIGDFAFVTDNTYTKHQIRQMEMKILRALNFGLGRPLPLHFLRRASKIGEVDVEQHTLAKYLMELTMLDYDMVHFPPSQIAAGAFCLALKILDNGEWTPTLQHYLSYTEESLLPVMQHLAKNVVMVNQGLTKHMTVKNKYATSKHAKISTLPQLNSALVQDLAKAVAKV
T2 sequence (P50750 whole entry): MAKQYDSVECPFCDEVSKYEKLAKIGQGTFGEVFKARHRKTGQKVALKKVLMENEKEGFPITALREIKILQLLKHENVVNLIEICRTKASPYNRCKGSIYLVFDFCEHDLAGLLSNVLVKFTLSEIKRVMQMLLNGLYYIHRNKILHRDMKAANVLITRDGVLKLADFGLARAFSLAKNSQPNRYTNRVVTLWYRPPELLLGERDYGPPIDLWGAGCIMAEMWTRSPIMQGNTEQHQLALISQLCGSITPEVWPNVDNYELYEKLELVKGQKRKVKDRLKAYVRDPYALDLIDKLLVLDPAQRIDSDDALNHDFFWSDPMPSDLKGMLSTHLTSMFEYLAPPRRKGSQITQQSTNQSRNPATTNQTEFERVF
T2 sequence (O60563 whole entry partner): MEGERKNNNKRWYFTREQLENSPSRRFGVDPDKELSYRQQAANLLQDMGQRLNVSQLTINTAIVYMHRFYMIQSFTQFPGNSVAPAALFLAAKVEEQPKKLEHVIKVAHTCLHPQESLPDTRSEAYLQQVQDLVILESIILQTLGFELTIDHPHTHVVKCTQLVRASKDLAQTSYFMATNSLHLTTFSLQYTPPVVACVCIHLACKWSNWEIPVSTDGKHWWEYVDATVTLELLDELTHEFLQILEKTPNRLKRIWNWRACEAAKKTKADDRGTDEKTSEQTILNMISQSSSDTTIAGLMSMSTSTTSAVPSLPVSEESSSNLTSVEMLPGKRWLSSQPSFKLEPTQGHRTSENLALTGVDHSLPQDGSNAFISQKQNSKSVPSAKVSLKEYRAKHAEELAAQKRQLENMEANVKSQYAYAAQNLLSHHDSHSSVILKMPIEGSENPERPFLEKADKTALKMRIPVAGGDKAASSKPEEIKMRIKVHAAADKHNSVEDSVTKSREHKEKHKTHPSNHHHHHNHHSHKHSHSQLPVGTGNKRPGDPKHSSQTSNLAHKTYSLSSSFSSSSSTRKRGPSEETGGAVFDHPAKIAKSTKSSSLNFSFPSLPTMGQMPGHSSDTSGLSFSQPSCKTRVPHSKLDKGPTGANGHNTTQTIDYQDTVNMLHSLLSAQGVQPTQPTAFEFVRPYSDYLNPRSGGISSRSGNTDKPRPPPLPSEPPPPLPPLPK

Row | SMILES | IC50 (CDK4-CYCLIND1; [1]) [nM] | IC50 (CDK2-CYCLINA; Table 4b, lower part) [nM] | IC50 (CDK7 CyclinH; Table 4b, lower part) [nM] | IC50 (CDK9-CYCLINT1; Table 4b, lower part) [nM] | IC50 (CDK1/B; Table 4b, lower part) [nM] | IC50 (CDK4-CYCLIND1; CDK4 CyclinD1 IC50, Table 4a) [nM] | IC50 (CDK2-CYCLINA; Table 4a) [nM] | IC50 (CDK7 CyclinH; Table 4a) [nM] | IC50 (CDK9-CYCLINT1; Table 4a) [nM] | IC50 (CDK1/B; Table 4a) [nM]
1 | CN1CCN(c2ccc(Nc3ncc4c(n3)N(C3CCCC3)C(=O)N([C@H]3CCNC3)C4)cc2)CC1 [Example D71, (S)-1-cyclopentyl-7-((4-(4-methylpiperazin-1-yl)phenyl)amino)-3-(pyrrolidin-3-yl)-3,4-dihydropyrimido[4,5-d]pyrimidin-2(1H)-one] |  |  |  |  |  | 1960 | > 10000 | > 10000 | > 10000 | > 10000
2 | O=C1NCC[C@@]12Cc1cnc(N[C@H]3CC[C@H](NC4CCOCC4)CC3)nc1N(C13CC(C1)C3)C2=O [Example D93, (S)-8-(bicyclo[1.1.1]pentan-1-yl)-2-(((1r,4S)-4-((tetrahydro-2H-pyran-4-yl)amino)cyclohexyl)amino)-5,8-dihydro-7H-spiro[pyrido[2,3-d]pyrimidine-6,3′-pyrrolidine]-2′,7-dione] |  |  |  |  |  | 33.3 | 723 | 1500 | 16.1 | 1100
3 | O=C1NCC[C@@]12Cc1cnc(N[C@H]3CC[C@H](NC4CCOCC4)CC3)nc1N(C1CCCC1)C2=O [Example D92, (S)-8-cyclopentyl-2-(((1r,4S)-4-((tetrahydro-2H-pyran-4-yl)amino)cyclohexyl)amino)-5,8-dihydro-7H-spiro[pyrido[2,3-d]pyrimidine-6,3′-pyrrolidine]-2′,7-dione] |  |  |  |  |  | 5.56 | 153 | 343 | < 3.2 | 219
4 | O=C1NCC[C@@]12Cc1cnc(Nc3ccc(N4CCN(CCO)CC4)c(F)c3)nc1N(C1CCCC1)C2=O [Example D97, (S)-8-cyclopentyl-2-((3-fluoro-4-(4-(2-hydroxyethyl)piperazin-1-yl)phenyl)amino)-5,8-dihydro-7H-spiro[pyrido[2,3-d]pyrimidine-6,3′-pyrrolidine]-2′,7-dione] | < 3.2 | 56.6 | 111 | < 3.2 | 222 |  |  |  |  | 
5 | O=C1NCC[C@@]12Cc1cnc(Nc3ccc(N4CCN(CCO)CC4)c(F)c3)nc1N(C13CC(C1)C3)C2=O [Example D99, (S)-8-(bicyclo[1.1.1]pentan-1-yl)-2-((3-fluoro-4-(4-(2-hydroxyethyl)piperazin-1-yl)phenyl)amino)-5,8-dihydro-7H-spiro[pyrido[2,3-d]pyrimidine-6,3′-pyrrolidine]-2′,7-dione] | 13.3 | 1090 | 1240 | 28.1 | 2910 |  |  |  |  | 

More lines, now with the values ahead:

Row | IC50 (CDK4-CYCLIND1; [1]) [nM] | IC50 (CDK2-CYCLINA; Table 4b, lower part) [nM] | IC50 (CDK7 CyclinH; Table 4b, lower part) [nM] | IC50 (CDK9-CYCLINT1; Table 4b, lower part) [nM] | IC50 (CDK1/B; Table 4b, lower part) [nM] | IC50 (CDK4-CYCLIND1; CDK4 CyclinD1 IC50, Table 4a) [nM] | IC50 (CDK2-CYCLINA; Table 4a) [nM] | IC50 (CDK7 CyclinH; Table 4a) [nM] | IC50 (CDK9-CYCLINT1; Table 4a) [nM] | IC50 (CDK1/B; Table 4a) [nM] | SMILES
6 | < 3.2 | 40.4 | 276 | > 10000 | 295 |  |  |  |  |  | O=C1NCC[C@@]12Cc1cnc(Nc3ccc(N4CCN(C5CC5)CC4)cc3)nc1N(C1CCCC1)C2=O [Example D202, (S)-8-cyclopentyl-2-((4-(4-cyclopropylpiperazin-1-yl)phenyl)amino)-5,8-dihydro-7H-spiro[pyrido[2,3-d]pyrimidine-6,3′-pyrrolidine]-2′,7-dione]
7 | < 3.2 | 36.8 | 162 | < 3.2 | 167 |  |  |  |  |  | CN1CC2(C1)CN(c1ccc(Nc3ncc4c(n3)N(C3CCCC3)C(=O)[C@]3(CCNC3=O)C4)cc1F)C2 [Example D101, (S)-8-cyclopentyl-2-((3-fluoro-4-(6-methyl-2,6-diazaspiro[3.3]heptan-2-yl)phenyl)amino)-5,8-dihydro-7H-spiro[pyrido[2,3-d]pyrimidine-6,3′-pyrrolidine]-2′,7-dione]
8 | < 3.2 | 31.3 | 3450 | < 3.2 | 232 |  |  |  |  |  | O=C1NCC[C@@]12Cc1cnc(Nc3ccc(OCCO)cc3)nc1N(C1CCCC1)C2=O [Example D116, (S)-8-cyclopentyl-2-((4-(2-hydroxyethoxy)phenyl)amino)-5,8-dihydro-7H-spiro[pyrido[2,3-d]pyrimidine-6,3′-pyrrolidine]-2′,7-dione]
